Measurements taken from PubChem BioAssay AID651829 (Broad Institute, 2012).
Active and inactive are the calls of the source.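 The calls were made as follows: active = max delta Tm melting temperature shift above 1 degree C at some tested dose; inactive = the rest.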

Target: Kelch-like ECH-associated protein 1 (Homo sapiens) (UniProt Q14145)
Test: thermal stabilisation of Keap1 Kelch domain – biophysical, thermal shift, RT-PCR instrument, dry powder, orthogonal assay for Keap1-Nrf2 interaction inhibitor project, dose response (AID 651829)
Conditions: Recombinant Keap1 Kelch domain, Sypro Orange, at 0.16 µM, top dose 38 µM, active compounds read high

Kelch-like ECH-associated protein 1 (Homo sapiens), sequence (Q14145 whole entry, looked up, the tested form may be a part): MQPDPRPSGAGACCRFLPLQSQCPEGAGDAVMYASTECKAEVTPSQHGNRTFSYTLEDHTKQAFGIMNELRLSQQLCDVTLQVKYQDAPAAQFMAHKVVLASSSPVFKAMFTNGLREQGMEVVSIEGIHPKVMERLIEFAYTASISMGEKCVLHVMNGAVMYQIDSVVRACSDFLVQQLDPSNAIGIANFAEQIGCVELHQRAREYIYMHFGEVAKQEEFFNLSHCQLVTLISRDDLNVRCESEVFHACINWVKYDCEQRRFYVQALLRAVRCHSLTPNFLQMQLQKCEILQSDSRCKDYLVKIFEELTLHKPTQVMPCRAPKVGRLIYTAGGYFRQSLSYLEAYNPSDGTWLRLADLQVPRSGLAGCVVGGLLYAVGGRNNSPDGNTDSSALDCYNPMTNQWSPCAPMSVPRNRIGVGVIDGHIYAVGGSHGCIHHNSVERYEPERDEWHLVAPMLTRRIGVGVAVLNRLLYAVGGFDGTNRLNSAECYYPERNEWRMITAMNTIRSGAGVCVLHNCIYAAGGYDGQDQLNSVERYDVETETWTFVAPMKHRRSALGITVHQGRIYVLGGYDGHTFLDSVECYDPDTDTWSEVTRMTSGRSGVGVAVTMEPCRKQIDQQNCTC

SMILES	max delta Tm
COC(=O)C1CCCCC1C(=O)N1CCc2ccccc2C1CN1C(=O)c2ccccc2C1=O (configuration not stated)	0.175 °C (inactive)
O=C(NC[C@@H]1c2ccccc2CCN1C(=O)[C@@H]1CCCC[C@@H]1C(=O)O)c1ccccc1	0.132 °C (inactive)
O=C(O)[C@H]1CCCC[C@H]1C(=O)N1CCC2=C(CCCC2)C1CN1C(=O)c2ccccc2C1=O (some centres not stated)	0.172 °C (inactive)
O=C(O)c1ccccc1C(=O)NC[C@@H]1c2ccccc2CCN1C(=O)[C@@H]1CCCC[C@@H]1C(=O)O	-0.037 °C (inactive)
O=C(NCCCN1CCOCC1)c1ccccc1C(=O)NC[C@@H]1c2ccccc2CCN1C(=O)C1CCCCC1C(=O)O (some centres not stated)	0.217 °C (inactive)
O=C1c2ccccc2C(=O)N1C[C@@H]1c2ccccc2CCN1C(=O)OCc1ccccc1	-0.028 °C (inactive)

Same assay, conditions: Recombinant Keap1 Kelch domain, Sypro Orange, at 0.3 µM, top dose 38 µM, active compounds read high

SMILES	max delta Tm
COC(=O)CNc1nc(NS(=O)(=O)c2c(C)cc(C)cc2C)c2ccccc2n1	0.26 °C (inactive)
Cc1ccc(S(=O)(=O)NC(=O)[C@@H]2c3ccccc3CCN2C(=O)[C@@H]2CCCC[C@@H]2C(=O)O)cc1	0.155 °C (inactive)
CCOC(=O)C(C(=O)OCC)c1cc(CNS(=O)(=O)c2ccc(C)cc2C)c2ccccc2n1	0.118 °C (inactive)
COc1ccccc1CCNC(=O)[C@@H]1c2ccccc2CCN1C(=O)C1CCCCC1C(=O)O (some centres not stated)	0.192 °C (inactive)

Same assay, conditions: Recombinant Keap1 Kelch domain, Sypro Orange, at 2.6 µM, top dose 38 µM, active compounds read high

SMILES	max delta Tm
O=C(O)C1CCCCC1C(=O)N1CCc2ccccc2[C@H]1C(=O)NC12CC3CC(CC(C3)C1)C2 (some centres not stated)	-0.05 °C (inactive)
CCOC(=O)C(C(=O)OCC)c1nc(NS(=O)(=O)c2c(C)cc(C)cc2C)c2ccccc2n1	0.045 °C (inactive)

Same assay, conditions: Recombinant Keap1 Kelch domain, Sypro Orange, at 5 µM, top dose 38 µM, active compounds read high

SMILES	max delta Tm
CC(=O)Nc1cc(NS(=O)(=O)c2c(C)cc(C)cc2C)c2ccccc2c1O	0.953 °C (inactive)
O=C1c2ccccc2C(=O)N1CC1=NCCc2ccccc21	-0.008 °C (inactive)

Same assay, conditions: Recombinant Keap1 Kelch domain, Sypro Orange, at 19.5 µM, top dose 38 µM, active compounds read high

SMILES	max delta Tm
Cc1ccc(S(=O)(=O)NC[C@@H]2c3ccccc3CCN2C(=O)[C@@H]2CCCC[C@@H]2C(=O)O)c(C)c1	0.174 °C (inactive)
COc1ccccc1CCNC(=O)[C@@H]1c2ccccc2CCN1C(=O)C1CCCCC1C(=O)O (some centres not stated)	0.102 °C (inactive)

Same assay, conditions: Recombinant Keap1 Kelch domain, Sypro Orange, at 38 µM, top dose 38 µM, active compounds read high

SMILES	max delta Tm [degrees C]
Cc1ccc(S(=O)(=O)NC(=O)[C@@H]2c3ccccc3CCN2C(=O)[C@@H]2CCCC[C@@H]2C(=O)O)cc1	2.68
O=C(O)[C@H]1CCCC[C@H]1C(=O)N1CCC2=C(CCCC2)C1CN1C(=O)c2ccccc2C1=O (some centres not stated)	2.69
NC(=O)[C@H]1CCCC[C@H]1C(=O)N1CCc2ccccc2[C@H]1CN1C(=O)c2ccccc2C1=O	1.34
O=C(O)[C@@H]1CCCN1C(=O)N1CCc2ccccc2[C@H]1CN1C(=O)c2ccccc2C1=O	2.21
O=C(NCCO)c1ccccc1C(=O)NC[C@@H]1c2ccccc2CCN1C(=O)C1CCCCC1C(=O)O (some centres not stated)	1.77
COC(=O)C(C(=O)OC)c1cc(NS(=O)(=O)c2c(C)cc(C)cc2C)c2ccccc2c1O	3.82
